Values quoted from earlier work in US11480580B2, “Methods and reagents to label bacteria and virus and identify their interacting proteins” (priority 2019, dated 2022).

Test system: ZIKV
Conditions: prior studies

## CN(C)CCCN1c2ccccc2Sc2ccc(Cl)cc21 [chlorpromazine]
  ZIKV infection: blocked
